The results in this text go back to patent US9458141B2, “Low molecular weight thyroid stimulating hormone receptor (TSHR) agonists” (The United States of America, as represented by the …, priority 2008, dated 2016).

pEC50: −log10 of the molar value.

By pEC50 is commonly meant the EC50 on a negative log10 scale, so that one unit is a factor of ten. A high value points to a low EC50.

The target of this assay is T1, human TSHR (Homo sapiens, UniProt P16473).
T1 construct: expressed in transfected cells
T1 sequence (P16473 21-764): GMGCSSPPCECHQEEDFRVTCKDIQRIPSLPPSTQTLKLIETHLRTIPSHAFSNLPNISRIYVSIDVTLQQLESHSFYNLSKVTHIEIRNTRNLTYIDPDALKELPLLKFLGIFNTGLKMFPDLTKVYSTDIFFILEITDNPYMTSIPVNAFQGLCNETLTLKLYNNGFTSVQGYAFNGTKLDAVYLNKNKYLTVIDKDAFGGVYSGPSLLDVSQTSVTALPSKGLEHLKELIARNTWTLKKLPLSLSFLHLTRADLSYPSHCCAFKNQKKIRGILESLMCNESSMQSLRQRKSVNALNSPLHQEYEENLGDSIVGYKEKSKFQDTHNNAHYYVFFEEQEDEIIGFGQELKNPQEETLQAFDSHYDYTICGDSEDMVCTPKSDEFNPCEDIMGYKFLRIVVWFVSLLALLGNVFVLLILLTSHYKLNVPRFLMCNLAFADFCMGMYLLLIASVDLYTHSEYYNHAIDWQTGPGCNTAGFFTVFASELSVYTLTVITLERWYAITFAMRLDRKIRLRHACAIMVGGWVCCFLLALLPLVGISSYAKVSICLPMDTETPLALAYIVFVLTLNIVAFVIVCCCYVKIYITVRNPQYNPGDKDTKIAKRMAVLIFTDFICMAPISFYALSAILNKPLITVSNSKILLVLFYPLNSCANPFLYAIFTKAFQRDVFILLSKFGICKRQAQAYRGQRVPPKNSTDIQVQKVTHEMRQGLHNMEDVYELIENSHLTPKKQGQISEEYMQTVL
The experiment in a line: Confirmatory cAMP assay, HEK EM 293 cells stably expressing TSHR. The format is cell-based. The note with it: 1 h incubation, 1 mM IBMX. The text has this:
cDNA for human TSHR was amplified by PCR from hTSHR-pSVL (1) and inserted into the pcDNA3.1(−)/hygromycin vector using restriction sites XhoI and BamHI. cDNA for human LHCGR was amplified by PCR from hLHR-pGS5 (2) and was inserted into the pcDNA3.1(+)/hygromycin vector using restriction sites BamHI and XhoI. The FSHR cDNA in pcDNA3.1 was obtained from the Missouri S&T cDNA Resource Center (www.cDNA.org) and was subcloned into the pcDNA3.1(−)/hygromycin vector. Constructs were confirmed by sequencing (MWG Biotech). HEK-EM 293 cells were transfected with the cDNA of TSHR, LHCGR or FSHR using FuGENE 6 Transfection reagent (Roche Diagnostics) according to the manufacturer's protocol. Two days after transfection cells were passaged and grown in Dulbecco's modified Eagle's Medium (DMEM) supplemented with 10% fetal bovine serum, 100 units/ml penicillin and 10 μg/ml streptomycin (Life Technologies Inc.) and with hygromycin (250 μg/ml) as a selection marker. After 7 to 10 days hygromycin-resistant clones were selected, and after a few days of further growth submitted for a cAMP assay to identify clones that stably express the appropriate receptor. Cell Culture. Cells stably expressing TSHR, LHCGR or FSHR and parental HEK 293 cells were maintained in DMEM medium containing 10% FBS, 100 units/ml Penicillin, 100 μg/ml Streptomycin, at 37° C. in 5% CO2. For the cells lines stably expressing TSHR, LHCGR or FSHR, additional 250 μg/ml Hygromycin was added during the cell culture. The cells were seeded at a density of 3 to 4 million cells in a T175 flask containing 35 ml of media and were allowed to grow for 3 days to reach 80-90% confluence. A flask of HEK 293 cells at this density generally yielded 30 million cells total. Homogeneous Time Resolved Fluorescence (HTRF) cAMP Assay. Compounds were assayed using a HTRF cAMP detection kit (Cisbio, Bedford, Mass.) on both TSHR cell line and parental cell line. Briefly, 750 cells were plated in 2.5 μl/well of complete media (DMEM containing 10% FCS) in 1536 well solid bottom white plates and 20 nl/well compound in DMSO solution or controls was added. Following 30 minute incubation at room temperature, 2.5 μl/well of labeled d2 cAMP and 2.5 μl/well of anti-cAMP antibody (both diluted 1:20 in lysis buffer) were added to each well using a flying reagent dispenser (Aurora Discovery, San Diego). Plates were measured using the Envision plate reader (PerkinElmer, Boston, Mass.) with excitation at 330 nm and emissions of 615 nm and 660 nm. Compound Preparation. […] Data Analysis. […] The EC50 values of compounds were calculated from the concentration-response curves by nonlinear regression analysis using Prism software (GraphPad Software, San Diego, Calif.). Confirmatory cAMP Assay and Test for Selectivity Towards TSHR 50,000 cells/well were plated in complete media (DMEM containing 10% FCS) in 96 well plates. […] Following aspiration of the medium after incubation with compounds, cells were lysed using lysis buffer of the cAMP-Screen Direct™ System (Applied Biosystems, Cat # CSD200). The cAMP content of the cell lysate was determined using the manufacturer's protocol. […] Below is a List of Compounds that were Assayed via the Homogeneous Time Resolved Fluorescence (HTRF) cAMP Assay.
`COc1ccc(C2Nc3ccccc3C(=O)N2Cc2ccco2)cc1COc1ccc(NC(C)=O)cc1` (centres unmarked) [Compound 3, N-(4-(5-(3-(Furan-2-ylmethyl)-4-oxo-1,2,3,4-tetrahydroquinazolin-2-yl)-2-methoxybenzyloxy)phenyl)acetamide]: the pEC50 is 6.23.
Next, `COc1ccc(-c2nc3ccccc3c(=O)n2Cc2ccco2)cc1COc1ccc(NC(C)=O)cc1` [Compound 3/1, N-(4-(5-(3-(Furan-2-ylmethyl)-4-oxo-3,4-dihydroquinazolin-2-yl)-2-methoxybenzyloxy)phenyl)acetamide]: 7.00.
In turn, `COc1ccc(C2Nc3ccccc3C(=O)N2Cc2ccccc2)cc1COc1ccc(NC(C)=O)cc1` (centres unmarked) [Compound 3/2, N-(4-(5-(3-Benzyl-4-oxo-1,2,3,4-tetrahydroquinazolin-2-yl)-2-methoxybenzyloxy)phenyl)acetamide] had a pEC50 of 6.27.
In turn, `COc1ccc(C2Nc3cccc(O)c3C(=O)N2Cc2ccccc2)cc1COc1ccc(NC(C)=O)cc1` (centres unmarked) [Compound 3/4, N-(4-(5-(3-Benzyl-5-hydroxy-4-oxo-1,2,3,4-tetrahydroquinazolin-2-yl)-2-methoxybenzyloxy)phenyl)acetamide] had a pEC50 of 7.60.
In the case of `COc1ccc(C2Nc3ccccc3C(=O)N2Cc2ccccc2)cc1CSc1ccc(NC(C)=O)cc1` (centres unmarked) [Compound 3/5, N-(4-(5-(3-Benzyl-4-oxo-1,2,3,4-tetrahydroquinazolin-2-yl)-2-methoxybenzylthio)phenyl)acetamide], the pEC50 was 7.42.
